Source: patent US20260132129A1 (Genesis Therapeutics, Inc., priority 2022, published 2026)
Structures can show the parent of a compound that is named as a salt.

Biological target: T1, PI3Kα H1047R (T47D cells) (Homo sapiens, UniProt P42336, H1047R)
T1 construct: endogenous in cells; host or cells: T47D cells
Assay: PI3Kα cellular assay: pAKT HTRF in T47D cells after EGF stimulation
Assay type: cell-based
Settings: for IC50: T47D cells (PI3Kα H1047R), pAKT S473 HTRF, 1 hr compound, 20 ng/ml EGF 10 min
Summary of the method: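 T47D cells (PIK3CA H1047R) serum-starved 16 h, then treated 1 h at 37 °C with compound (10,000 nM top, 3-fold steps to 0.5 nM). After 10 min stimulation with 20 ng/mL EGF, cells were lysed and pAKT measured by HTRF.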

T1 sequence (P42336 whole entry H1047R): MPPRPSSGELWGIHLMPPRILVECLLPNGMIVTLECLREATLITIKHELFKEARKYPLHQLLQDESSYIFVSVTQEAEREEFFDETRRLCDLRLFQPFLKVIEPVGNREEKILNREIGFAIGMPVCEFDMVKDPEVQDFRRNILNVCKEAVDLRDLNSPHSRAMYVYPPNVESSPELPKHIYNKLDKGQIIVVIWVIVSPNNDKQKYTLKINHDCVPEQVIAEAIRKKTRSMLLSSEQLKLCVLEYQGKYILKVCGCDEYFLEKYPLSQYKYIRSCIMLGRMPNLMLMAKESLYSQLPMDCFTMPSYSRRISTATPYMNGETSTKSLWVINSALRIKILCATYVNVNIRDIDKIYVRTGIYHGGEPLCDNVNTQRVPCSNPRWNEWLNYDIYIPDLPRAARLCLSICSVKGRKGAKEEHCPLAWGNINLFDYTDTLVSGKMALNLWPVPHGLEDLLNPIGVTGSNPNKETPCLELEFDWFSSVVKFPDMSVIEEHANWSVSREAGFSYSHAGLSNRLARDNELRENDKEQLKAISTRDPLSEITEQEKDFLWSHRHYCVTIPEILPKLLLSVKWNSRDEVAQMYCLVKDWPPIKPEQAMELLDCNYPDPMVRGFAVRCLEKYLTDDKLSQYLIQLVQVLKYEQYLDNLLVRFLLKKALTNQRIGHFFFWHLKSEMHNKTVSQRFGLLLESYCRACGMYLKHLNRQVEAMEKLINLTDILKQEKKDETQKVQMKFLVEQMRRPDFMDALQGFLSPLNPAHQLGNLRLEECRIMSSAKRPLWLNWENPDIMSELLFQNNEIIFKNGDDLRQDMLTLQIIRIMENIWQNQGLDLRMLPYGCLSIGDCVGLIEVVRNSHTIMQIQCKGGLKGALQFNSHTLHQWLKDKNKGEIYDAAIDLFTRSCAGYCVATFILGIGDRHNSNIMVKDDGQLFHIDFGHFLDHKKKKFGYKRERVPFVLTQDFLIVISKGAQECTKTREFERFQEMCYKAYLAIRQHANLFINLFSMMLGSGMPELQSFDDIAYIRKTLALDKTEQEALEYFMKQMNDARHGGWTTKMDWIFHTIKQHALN
T1 sequence (P27986 whole entry partner): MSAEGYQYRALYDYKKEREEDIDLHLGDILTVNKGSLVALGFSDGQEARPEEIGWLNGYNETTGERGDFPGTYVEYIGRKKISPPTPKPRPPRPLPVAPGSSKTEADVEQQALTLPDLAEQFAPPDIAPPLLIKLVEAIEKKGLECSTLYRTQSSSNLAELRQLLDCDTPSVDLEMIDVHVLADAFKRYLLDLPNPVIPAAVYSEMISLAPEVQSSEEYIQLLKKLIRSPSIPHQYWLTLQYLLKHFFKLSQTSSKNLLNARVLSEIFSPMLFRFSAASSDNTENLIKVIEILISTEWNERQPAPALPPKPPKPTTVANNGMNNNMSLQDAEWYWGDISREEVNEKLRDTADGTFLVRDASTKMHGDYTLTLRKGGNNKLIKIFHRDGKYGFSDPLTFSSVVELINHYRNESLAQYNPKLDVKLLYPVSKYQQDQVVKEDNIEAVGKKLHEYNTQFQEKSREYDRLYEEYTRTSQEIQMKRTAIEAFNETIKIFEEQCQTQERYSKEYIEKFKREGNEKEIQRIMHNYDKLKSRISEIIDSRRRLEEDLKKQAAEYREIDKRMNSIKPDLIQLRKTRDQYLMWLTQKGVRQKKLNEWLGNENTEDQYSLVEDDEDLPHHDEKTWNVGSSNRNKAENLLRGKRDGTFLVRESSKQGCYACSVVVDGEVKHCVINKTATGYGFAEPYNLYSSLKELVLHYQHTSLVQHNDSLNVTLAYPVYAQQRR

IC50 [µM]	T47D pAKT S473 HTRF IC50 (H1047R): T47D (H1047R) selectivity over SKBR3 (WT)	Compound
> 2	C (C denotes ≤5-fold)	Cc1cc(C(C)Nc2ccccc2C(=O)O)c2nc(-c3ccc4[nH]nc(-c5ccccn5)c4c3)cc(=O)n2c1 (centres unmarked) [Compound 318]
0.1 to 0.5	A (A denotes >20-fold)	Cc1cc([C@@H](C)Nc2ccccc2C(=O)O)c2nc(N3C[C@@H](C)O[C@@H](C)C3)cc(=O)n2c1 [Compound 319]
> 2	C (C denotes ≤5-fold)	Cc1cc([C@H](C)Nc2ccccc2C(=O)O)c2nc(N3C[C@@H](C)O[C@@H](C)C3)cc(=O)n2c1 [Compound 320]
> 2	C (C denotes ≤5-fold)	Cc1cc(C(C)Nc2ccccc2C#N)c2nc(N3CCOCC3)cc(=O)n2c1 (centres unmarked) [Compound 321]
> 2	C (C denotes ≤5-fold)	COc1ccc(C(=O)O)c(NC(C)c2cc(C)cn3c(=O)cc(N4CCOCC4)nc23)c1 (centres unmarked) [Compound 323]
> 2	C (C denotes ≤5-fold)	COc1cc(NC(C)c2cc(C)cn3c(=O)cc(N4CCOCC4)nc23)c(C(=O)O)cc1OC (centres unmarked) [Compound 325]
> 2	C (C denotes ≤5-fold)	Cc1cc(C(C)Nc2cc(C#N)ccc2C(=O)O)c2nc(N3CCOCC3)cc(=O)n2c1 (centres unmarked) [Compound 326]
> 2	C (C denotes ≤5-fold)	Cc1cc(C(C)Nc2cc(C(F)(F)F)ccc2C(=O)O)c2nc(N3CCOCC3)c(C)c(=O)n2c1 (centres unmarked) [Compound 328]
> 2	C (C denotes ≤5-fold)	Cc1cc(C(C)Nc2ccc(C#N)cc2C(=O)O)c2nc(N3CCOCC3)cc(=O)n2c1 (centres unmarked) [Compound 329]
> 2	C (C denotes ≤5-fold)	Cc1cc([C@@H](C)Nc2cccc(C)c2C(=O)O)c2nc(C3CCOCC3)cc(=O)n2c1 [Compound 330]
> 2	C (C denotes ≤5-fold)	Cc1cc([C@H](C)Nc2cccc(F)c2C(=O)O)c2nc(N3CCOCC3)cc(=O)n2c1 [Compound 331]
> 2	C (C denotes ≤5-fold)	Cc1cc([C@@H](C)Oc2ccc(F)cc2C(=O)O)c2nc(N3CCOCC3)cc(=O)n2c1 [Compound 332]
> 2	C (C denotes ≤5-fold)	Cc1cc([C@@H](C)Nc2c(F)cccc2C(=O)O)c2nc(N3CCOCC3)cc(=O)n2c1 [Compound 333]
> 2	C (C denotes ≤5-fold)	Cc1cc([C@H](C)Nc2c(F)cccc2C(=O)O)c2nc(N3CCOCC3)cc(=O)n2c1 [Compound 334]
> 2	C (C denotes ≤5-fold)	Cc1cc([C@@H](C)Nc2c(C)cccc2C(=O)O)c2nc(N3CCOCC3)cc(=O)n2c1 [Compound 335]
> 2	C (C denotes ≤5-fold)	Cc1cc([C@H](C)Nc2ccccc2C#N)c2nc(N3CCOCC3)cc(=O)n2c1 [Compound 338]
	C (C denotes ≤5-fold)	Cc1cc(C(C)Nc2ccccc2C(=O)O)c2nc(C3CCC(C)CC3)cc(=O)n2c1 (centres unmarked) [Compound 339]
> 2	C (C denotes ≤5-fold)	Cc1cc([C@@H](C)Nc2ccccc2-n2nn[nH]c2=O)c2nc(N3CCOCC3)cc(=O)n2c1 [Compound 343]
> 2	C (C denotes ≤5-fold)	Cc1cc([C@H](C)Nc2ccccc2-n2nn[nH]c2=O)c2nc(N3CCOCC3)cc(=O)n2c1 [Compound 344]
0.5 to 2	A (A denotes >20-fold)	Cc1cc(C(C)Nc2ccccc2S(N)(=O)=O)c2nc(-c3ccncc3)cc(=O)n2c1 (centres unmarked) [Compound 346]
0.1 to 0.5	A (A denotes >20-fold)	Cc1cc(C(C)Nc2ccccc2C(=O)O)c2nc(-c3ccc4c(c3)c(N)nn4C)cc(=O)n2c1 (centres unmarked) [Compound 347]
	A (A denotes >20-fold)	Cc1cc(C(C)Nc2ccccc2C(=O)O)c2nc(-c3ccc4[nH]nc(C)c4c3)cc(=O)n2c1 (centres unmarked) [Compound 348]
> 2	C (C denotes ≤5-fold)	Cc1cc(C(C)Nc2ccccc2C(=O)O)c2nc(-c3cnc4[nH]nc(-c5ccccc5)c4c3)cc(=O)n2c1 (centres unmarked) [Compound 351]

IC50 [µM]	T47D pAKT S473 HTRF IC50 (H1047R): T47D (H1047R) selectivity over SKBR3 (WT)	Compound
0.5 to 2	B (B denotes 20-fold≥value>5-fold)	COc1cc(-c2cc(=O)n3cc(C)cc(C(C)Nc4ccccc4C(=O)O)c3n2)cc(S(N)(=O)=O)c1 (centres unmarked) [Compound 355]
> 2	C (C denotes ≤5-fold)	CNC(=O)c1ccc(-c2cc(=O)n3cc(C)cc(C(C)Nc4ccccc4C(=O)O)c3n2)c(C)c1 (centres unmarked) [Compound 356]
> 2	C (C denotes ≤5-fold)	Cc1cc(C(C)Nc2cnncc2C(=O)O)c2nc(N3CCOCC3)cc(=O)n2c1 (centres unmarked) [Compound 357]
> 2	C (C denotes ≤5-fold)	Cc1cc(C(C)Nc2ccnnc2C(=O)O)c2nc(N3CCOCC3)cc(=O)n2c1 (centres unmarked) [Compound 358]
< 0.1	A (A denotes >20-fold)	Cc1cc([C@@H](C)Nc2ccccc2C(=O)O)c2nc(N3CCC(C)CC3)cc(=O)n2c1 [Compound 359]
> 2	C (C denotes ≤5-fold)	Cc1cc([C@H](C)Nc2ccccc2C(=O)O)c2nc(N3CCC(C)CC3)cc(=O)n2c1 [Compound 360]
< 0.1	A (A denotes >20-fold)	Cc1cc([C@@H](C)Nc2ccccc2C(=O)O)c2nc(N3CCC(C)(C)CC3)cc(=O)n2c1 [Compound 361]
> 2	C (C denotes ≤5-fold)	Cc1cc([C@H](C)Nc2ccccc2C(=O)O)c2nc(N3CCC(C)(C)CC3)cc(=O)n2c1 [Compound 362]
0.1 to 0.5	A (A denotes >20-fold)	Cc1cc(C(C)Nc2ccccc2C(=O)O)c2nc(N3CC(Cl)C3)cc(=O)n2c1 (centres unmarked) [Compound 363]
< 0.1	A (A denotes >20-fold)	Cc1cc([C@@H](C)Nc2ccccc2C(=O)O)c2nc(N3CC(Cl)C3)cc(=O)n2c1 [Compound 364]
> 2	C (C denotes ≤5-fold)	Cc1cc([C@H](C)Nc2ccccc2C(=O)O)c2nc(N3CC(Cl)C3)cc(=O)n2c1 [Compound 365]
> 2	C (C denotes ≤5-fold)	Cc1cc(C(C)Nc2ccccc2C(=O)O)c2nc(Nc3ccc(C(=O)O)cc3)cc(=O)n2c1 (centres unmarked) [Compound 369]
0.1 to 0.5	B (B denotes 20-fold≥value>5-fold)	Cc1cc(C(C)Nc2ccccc2C(=O)O)c2nc(N3CCO[C@H](C)C3)cc(=O)n2c1 (some centres unmarked) [Compound 372]
< 0.1	A (A denotes >20-fold)	Cc1cc([C@H](C)Nc2ccccc2C(=O)O)c2nc(N3CCO[C@H](C)C3)cc(=O)n2c1 [Compound 374]
> 2	C (C denotes ≤5-fold)	Cc1cc([C@@H](C)Nc2cnncc2C(=O)O)c2nc(N3CCOCC3)cc(=O)n2c1 [Compound 375]
> 2	C (C denotes ≤5-fold)	Cc1cc([C@H](C)Nc2cnncc2C(=O)O)c2nc(N3CCOCC3)cc(=O)n2c1 [Compound 376]
> 2	C (C denotes ≤5-fold)	Cc1cc([C@@H](C)Nc2ccnnc2C(=O)O)c2nc(N3CCOCC3)cc(=O)n2c1 [Compound 377]
> 2	C (C denotes ≤5-fold)	Cc1cc([C@H](C)Nc2ccnnc2C(=O)O)c2nc(N3CCOCC3)cc(=O)n2c1 [Compound 378]
> 2	C (C denotes ≤5-fold)	Cc1cc(C(C)Nc2c(C(=O)O)cnn2C)c2nc(N3CCOCC3)cc(=O)n2c1 (centres unmarked) [Compound 379]
> 2	C (C denotes ≤5-fold)	Cc1cc(C(C)Nc2ccccc2C(=O)O)c2nc(-c3cc[nH]c(=O)c3)cc(=O)n2c1 (centres unmarked) [Compound 380]
> 2	C (C denotes ≤5-fold)	Cc1cc([C@@H](C)Nc2c(C(=O)O)cnn2C)c2nc(N3CCOCC3)cc(=O)n2c1 [Compound 390]
> 2	C (C denotes ≤5-fold)	Cc1cc([C@@H](C)Nc2ccccc2C(=O)O)c2nc(N3CCN(C)CC3)cc(=O)n2c1 [Compound 394]
0.1 to 0.5	A (A denotes >20-fold)	Cc1cc(C(C)Nc2ccccc2C(=O)O)c2nc(-c3cccnc3)cc(=O)n2c1 (centres unmarked) [Compound 416, 2-((1-(7-methyl-4-oxo-2-(pyridin-3-yl)-4H-pyrido[1,2-a]pyrimidin-9-yl)ethyl)amino)benzoic acid trifluoroacetate]

Compound	IC50 [µM]	T47D pAKT S473 HTRF IC50 (H1047R): T47D (H1047R) selectivity over SKBR3 (WT)
Cc1cc([C@H](C)Nc2ccccc2C(=O)O)c2nc(N3Cc4ccccc4C3)cc(=O)n2c1 [Compound 403]	> 2	C (C denotes ≤5-fold)
